Earlier results in patent US20040170688A1, “Enteric formulation of fluoxetin” (priority 2001, published 2004).

Conditions: published literature

Row | elimination half-life | SMILES
1 | very long | CNCCC(Oc1ccc(C(F)(F)F)cc1)c1ccccc1 (stereo not drawn) [Fluoxetin, N-Methyl-3-phenyl-3-[(α,α,α-trifluorotolyl)oxyl] propylamine]
2 | very long | NCCC(Oc1ccc(C(F)(F)F)cc1)c1ccccc1 (centres unmarked) [NorFluoxetin]
